Assay results as given in article PMC5064445 (ACS infectious diseases, 2015).

What was measured:
[1] = target: NDM-1 (Klebsiella pneumoniae, UniProt C7C422); experiment: Inhibition of NDM-1-catalyzed imipenem hydrolysis; format: biochemical; settings: relative to L-CS319
[2] = test system: HEK 293 cells; experiment: Cytotoxicity assay; format: cell-based, human; settings: up to 500 μM; 24 h incubation
[3] = test system: HeLa cells; experiment: Cytotoxicity assay; format: cell-based, human; settings: up to 500 μM; 24 h incubation

Chain of NDM-1 (C7C422 39-270 limits assumed): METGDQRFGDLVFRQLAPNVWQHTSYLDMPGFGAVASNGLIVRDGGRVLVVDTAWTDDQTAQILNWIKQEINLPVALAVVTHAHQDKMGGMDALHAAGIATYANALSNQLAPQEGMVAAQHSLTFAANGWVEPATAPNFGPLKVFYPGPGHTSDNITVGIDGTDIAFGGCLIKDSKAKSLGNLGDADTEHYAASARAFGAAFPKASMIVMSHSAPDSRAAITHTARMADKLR

SMILES	times less active than L-CS319 (in vitro NDM-1 inhibition) [1] [times]	toxic effects against Hek 293 cells [2]	toxic effects against HeLa cells [3]
CC1(C)S[C@@H]2CS[C@@H](CS)N2[C@H]1C(=O)O [D-VC26, (2S,5R,8S)-2-Mercaptomethyl-7-dimethyl-8-carboxylate-1-aza-3,6-dithiobicyclo[3.3.0]octane]	~2	–	–
O=C(O)[C@@H]1CS[C@H]2CS[C@H](CS)N21 [L-CS319, (2R,5S,8R)-8-Carboxylate-2-mercaptomethyl-1-aza-3,6-dithiobicyclo[3.3.0]octane]	–	did not show toxic effects	did not show toxic effects
